Assays:
[1] = molecular target: SOS1 and KRAS G12D (Homo sapiens (Human), UniProt Q07889); assay: KRAS::SOS1 AlphaScreen Binding Assay; settings: SOS1 (564-1049), KRAS G12D (1-169), GDP
From the text: a. KRAS::SOS1 AlphaScreen Binding Assay
Low IC50 values of given compounds are indicative of high potency of the SOS1 inhibitor compounds in this assay setting.
• GST-TEV-SOS1 (564-1049) and His-TEV-Avi-KRAS G12D (1-169) are purchased from Viva Biotech (Shanghai) Ltd. • GDP (Sigma, Cat. G7127) • AlphaLISA Glutathione Acceptor Beads (PerkinElmer, Cat. AL109C) • AlphaScreen Streptavidin Donor Beads (PerkinElmer, Cat. 6760002S) • Assay plates: ProxiPlate-384 Plus, White 384-shallow well Microplate (PerkinElmer, Cat. 6008280)
SOS1 inhibitor compounds are diluted to a final start concentration of […]. Serial dilutions of compounds are made using Tecan D300e Digital Dispenser in 9 concentrations with serial 1:3 dilutions. 100 nL of compound solution is transferred to the 384-well assay plate per well, covering a range between 1 μM and 0.15 nM minimum in duplicate. 10 nM (final assay concentration) KRAS G12D, 5 nM (final assay concentration) SOS1 and 10 μM (final assay concentration) GDP are mixed in assay buffer, and 5 μL of KRAS::SOS1 GDP mix is added into the assay plate to the 100 nL of compound solution (final dilution in the assay 1:100, final DMSO concentration 1%). After a 30 min incubation, AlphaLISA Glutathione Acceptor Beads and AlphaScreen Streptavidin Donor Beads are mixed in assay buffer at a concentration of 5 µg/mL (final assay concentration), and 5 μL of bead mix is added into the assay plate. Plates are kept at room temperature in a darkened incubator for 3 h. After a 3 h incubation, the signal is determined using Envision (PerkinElmer). The excitation wavelength is 680 nm, and emission 615 nm. IC50 values are calculated and analyzed using GraphPad Prism.

[2] = system: NCI-H358; assay: Cell proliferation assay, 3D, CellTiter-Glo 3D; assay type: cell-based, human; settings: Homo sapiens, 72 h; NCI-H358 (KRAS G12C), 3D ultra-low attachment, 3 days; read-out: anit-prolif. H358 IC50
Protocol: b. Cell Proliferation Assay
Low IC50 values are indicative of high potency of the compounds in this assay setting.
Cell proliferation assay is performed in three-dimensional (3D) ultra-low conditions with the human cell line NCI-H358, a human non-small cell lung cancer (NSCLC) cell line with a KRAS G12C mutation.
• 96-well Clear Round Bottom Ultra-Low Attachment Microplate (Corning, Cat. 7007) • 96-well Flat Clear Bottom White Polystyrene TC-treated Microplates (Corning, Cat. 3610) • RPMI-1640 Medium (Gibco, Cat. 22400105) • Fetal Bovine Serum (FBS) (Gibco, Cat. 10099141C) • 0.25% Trypsin-EDTA (Gibco, Cat. 25200056) • Penicillin-Streptomycin (Gibco, Cat. 15140122) • CellTiter-Glo 3D Cell Viability Assay (Promega, Cat. G9683)
NCI-H358 cells (ATCC, Cat. CRL-5807) are grown in cell culture flasks using RPMI medium supplemented with 10% FBS. Cells are incubated at 37° C. and 5% C02 in a humidified atmosphere, with sub-cultivation performed twice a week. Cells are trypsinized, counted and plated in 96-well ultra-low adhesion plates for 3D cell viability determination. The day after plating, serial dilutions of SOS1 inhibitor compounds are made using Tecan D300e Digital Dispenser to evaluate a concentration-dependent effect on cell viability. The concentration of the test compounds covers a range between 5 μM and 0.76 nM with serial 1:3 dilutions in 9 concentrations. 0.5 μL serial dilutions of the compounds are added in duplicates. 3 days later, the CellTiter-Glo 3D Cell Viability Assay is used to measure cell viability effects of SOS1 inhibitor compounds in 3D format. Luminescent intensity is determined using Envision (PerkinElmer). Data is analyzed and IC50 values are calculated using GraphPad Prism.

SOS1 and KRAS G12D, sequence (Q07889 564-1049, stated change not applied): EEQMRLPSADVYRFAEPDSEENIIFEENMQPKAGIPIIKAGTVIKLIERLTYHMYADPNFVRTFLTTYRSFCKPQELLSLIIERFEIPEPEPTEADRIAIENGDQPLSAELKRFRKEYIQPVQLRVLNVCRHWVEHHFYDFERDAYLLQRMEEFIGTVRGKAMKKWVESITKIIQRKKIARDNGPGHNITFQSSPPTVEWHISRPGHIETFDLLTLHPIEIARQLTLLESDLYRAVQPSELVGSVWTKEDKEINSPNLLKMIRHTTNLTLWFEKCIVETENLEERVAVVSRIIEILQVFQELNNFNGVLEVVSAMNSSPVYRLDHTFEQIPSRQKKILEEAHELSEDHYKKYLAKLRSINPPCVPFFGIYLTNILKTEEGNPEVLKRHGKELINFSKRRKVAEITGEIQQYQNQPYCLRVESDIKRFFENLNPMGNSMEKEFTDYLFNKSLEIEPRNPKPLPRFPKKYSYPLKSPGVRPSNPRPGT

Compound	IC50 [1] [nM]	IC50 [2] [nM]
Cc1nc(N[C@H](C)c2cccc(C(F)(F)F)c2)c2cn(N3CCOCC3)c(=O)cc2n1 [Example 20]	≤ 15	≤ 100
Cc1nc(N[C@H](C)c2cccc(C(F)F)c2F)c2cn(N3C[C@@H](C)O[C@@H](C)C3)c(=O)cc2n1 [Example 5]	≤ 15	100 to 500
Cc1nc(N[C@H](C)c2cccc(C(F)F)c2F)c2cn(N3CCN(C(C)C)CC3)c(=O)cc2n1 [Example 12, 4-[[(1R)-1-[3-(difluoromethyl)-2-fluoro-phenyl]ethyl]amino]-6-(4-isopropylpiperazin-1-yl)-2-methyl-pyrido[4,3-d]pyrimidin-7-one]	≤ 15	100 to 500
Cc1nc(N[C@H](C)c2cccc(C(F)F)c2F)c2cn(N3CCNCC3)c(=O)cc2n1 [Example 10, 4-[[(1R)-1-[3-(difluoromethyl)-2-fluoro-phenyl]ethyl]amino]-2-methyl-6-piperazin-1-yl-pyrido[4,3-d]pyrimidin-7-one]	≤ 15	> 1000
Cc1nc(N[C@H](C)c2cccc(C(F)F)c2F)c2cn(N3CCCCC3)c(=O)cc2n1 [Example 2]	≤ 15	≤ 100
Cc1nc(N[C@H](C)c2cccc(C(F)F)c2F)c2cn(N3CCCOCC3)c(=O)cc2n1 [Example 6]	≤ 15	≤ 100
Cc1nc(N[C@H](C)c2cccc(C(F)F)c2F)c2cn(N3CCN(C(=O)CC#N)CC3)c(=O)cc2n1 [Example 14]	≤ 15	500 to 1000
Cc1nc(N[C@H](C)c2cccc(C(F)F)c2F)c2cn(N3CCN(C(=O)OC(C)(C)C)CC3)c(=O)cc2n1 [Example 4]	15 to 150	100 to 500

Second part, the compound after the results:

IC50 [1] [nM]	IC50 [2] [nM]	Compound
15 to 150	100 to 500	Cc1nc(N[C@H](C)c2cccc(C(F)F)c2F)c2cn(N3CCOCC3)c(=O)c(C#N)c2n1 [Example 41, 4-[[(1R)-1-[3-(difluoromethyl)-2-fluoro-phenyl]ethyl]amino]-2-methyl-6-morpholino-7-oxo-pyrido[4,3-d]pyrimidine-8-carbonitrile]
≤ 15	100 to 500	Cc1nc(N[C@H](C)c2cccc(C(F)F)c2F)c2cn(N3CCOCC3)c(=O)c(-c3ccc(N)nc3)c2n1 [Example 48]
≤ 15	≤ 100	Cc1nc(N[C@H](C)c2cccc(C(F)F)c2F)c2cn(N3CCOCC3)c(=O)c(-c3ccc(C#N)cc3)c2n1 [Example 57]
≤ 15	≤ 100	Cc1nc(N[C@H](C)c2cccc(C(F)F)c2F)c2cn(N3CCOCC3)c(=O)c(-c3cncnc3)c2n1 [Example 52]
15 to 150	≤ 100	Cc1nc(N[C@H](C)c2cccc(C(F)F)c2F)c2cn(N3CCOCC3)c(=O)c(-c3cnc(C#N)c(F)c3)c2n1 [Example 67]
15 to 150	500 to 1000	Cc1nc(N[C@H](C)c2cccc(C(F)F)c2F)c2cn(N3CCOCC3)c(=O)c(-c3cc(F)cc(C#N)c3)c2n1 [Example 64]
≤ 15	> 1000	Cc1nc(N[C@H](C)c2cccc(C(F)F)c2F)c2cn(N3CCOCC3)c(=O)c(-c3ccc[nH]c3=O)c2n1 [Example 51]
15 to 150	100 to 500	CCC(Nc1nc(C)nc2cc(=O)n(N3CCOCC3)cc12)c1cccc(C(F)(F)F)c1 (stereo not shown) [Example 24]
≤ 15	100 to 500	Cc1nc(N[C@H](C)c2cccc(C(F)F)c2F)c2cn(N(C)C)c(=O)cc2n1 [Example 34, 4-[[(1R)-1-[3-(difluoromethyl)-2-fluoro-phenyl]ethyl]amino]-6-(dimethylamino)-2-methyl-pyrido[4,3-d]pyrimidin-7-one]

— patent publication US20240051956A1, “SOS1 INHIBITORS AND USES THEREOF” (QILU REGOR THERAPEUTICS INC., priority 2020, published 2024)
